{"source": "patent US8586719B2", "about": "“Triterpenes for modulating gene expression and cell membrane, and as antiprotozoal agents” (Pacific Arrow Limited, priority 2005, dated 2013)", "key": {"[1]": {"system": "FN1 (fibronectin 1)", "experiment": "Gene expression by Real-time PCR: FN1", "type": "cell-based", "details": "control = 100", "from_the_text": "(§1) Determination of gene expression by Real-time PCR method (Brilliant QPCR, Agilent Technologies): The real-time polymerase chain reactions further confirm the results obtained from micro array analysis. The Real-time PCR results (shown below) confirmed that Compound Y3 and YM increase the expression of the genes: ANGPT2, DDIT3, LIF and NFKB1Z"}, "[2]": {"system": "LAMA4 (laminin alpha 4)", "experiment": "Gene expression by Real-time PCR: LAMA4", "type": "cell-based", "details": "control = 100", "from_the_text": "as §1"}, "[3]": {"system": "Glypican 6 (GPC6)", "experiment": "Microarray gene expression in ES2 cells: Glypican", "type": "cell-based, human", "from_the_text": "(§2) The composition comprises bioactive compounds from natural plants or synthesis. The majority of the plants are from the Sapindaceae family, which has 140-150 genera with 1400-2000 species. The program is based on our purification methods and biological assays including the MTT assay See International Application No. PCT/US05/31900, filed Sep. 7, 2005, U.S. Ser. No. 11/289,142, filed Nov. 28, 2005, and U.S. Ser. No. 11/131,551, filed May 17, 2005, and PCT/US2008/002086, 1188-ALA-PCT, filed Feb. 15, 2008, the contents of which are incorporated herein by reference. The details of Analysis of gene expression of ES2 cells after Y-treatment by Microarray, Data Analysis Methods and Western blot in PCT/US2008/002086, 1188-ALA-PCT, filed Feb. 15, 2008, the contents of which are incorporated herein by reference"}, "[4]": {"system": "insulin-like growth factor binding protein 1 (IGFBP1)", "experiment": "Microarray gene expression in ES2 cells: IGFBP1", "type": "cell-based, human", "details": "probe set 205302_at", "from_the_text": "as §2"}, "[5]": {"system": "(bladder) TB9 cells", "experiment": "Anti-cancer activity (MTT assay), bladder TB9 cells", "type": "cell-based", "details": "Homo sapiens", "from_the_text": "(Our purification methods and biological assays including the MTT assay in International Application No. PCT/US05/31900, filed Sep. 7, 2005, U.S. Ser. No. 11/289,142, filed Nov. 28, 2005, and U.S. Ser. No. 11/131,551, filed May 17, 2005, and PCT/US2008/002086, 1188-ALA-PCT, filed Feb. 15, 2008, the contents of which are incorporated herein by reference)\nExperiment details of herb extraction, analysis of extract components by HPLC, determination of the cell-growth activity effected by Xanifolia Y with cells derived from different human organs using MTT Assay, purification of the bioactive components from plant extract, fractionation of plant extracts with FPLC, isolation of component Ys with preparative HPLC, determination of the chemical structure, cell experiments and animal studying are disclosed in PCT/US05/31900, U.S. Ser. No. 11/289,142, U.S. Serial 10/906,303, U.S. Ser. No. 11/131,551 and U.S. Ser. Nos. 11/683,198, filed on Mar. 7, 2007, PCT/US2007/077273, filed Aug. 30, 2007, U.S. Ser. No. 60/890,380, filed on Feb. 16, 2007, U.S. Nos. 60/947,705, filed on Jul. 3, 2007, PCT/US2008/002086, 1188-ALA-PCT, filed Feb. 15, 2008, the contents of which are incorporated herein by reference. Experiments 1-23 of PCT/US2008/002086, 1188-ALA-PCT, filed Feb. 15, 2008 are incorporated herein by reference."}, "[6]": {"system": "Fibronectin", "experiment": "Fibronectin secretion, bladder carcinoma cells (HTB-9)", "type": "cell-based, human", "details": "Homo sapiens; Bladder HTB-9; 10 ug/ml (table: label suffix -10)", "procedure": "Reduction of Fibronectin secretion from ES2 cells after xanifolia-Y treatment. • (Results of F1, F3, F4, F5, F7, F8, F11, F12A, F15, F16, F17) Data in PCT/US2008/002086, 1188-ALA-PCT, filed Feb. 15, 2008 are incorporated herein by reference • (F11) For lung carcinoma cells (H460), at concentration of 20 ug/ml, there are inhibitions of Fibronectin secretion ranged from 20-60%. • (F12A) For bladder carcinoma cells (HTB-9), Xanifolia-Y (10 ug/ml) inhibits 50% of Fibronectin secretion. • (F15) In liver HepG2 cells. 10 ug/ml of xanifolia-Y inhibits 42% secretion of Fibronectin. • (F16) Incubation of brain glioblastoma T98G cells with 10 ug/ml of xanifolia-Y inhibits 27% Fibronectin secretion and with 20 ug/ml Y inhibits 74% Fibronectin secretion. • (F17) For skin SK-MeI-5 cells, the inhibition is 40-57% with 20 ug/ml of Xanifolia-Y."}, "[7]": {"system": "insulin-like growth factor binding protein 4 (IGFBP4)", "experiment": "Microarray gene expression in ES2 cells: IGFBP4", "type": "cell-based, human", "details": "probe set 201508_at", "from_the_text": "as §2"}, "[8]": {"system": "NFKB1Z (nuclear factor of kappa light polypeptide gene enhancer in B-cells inhibitor, zeta)", "experiment": "Gene expression by Real-time PCR: NFKB1Z", "type": "cell-based", "details": "DMSO control = 100", "from_the_text": "as §1"}, "[9]": {"system": "angiopoietin 1", "experiment": "Microarray gene expression in ES2 cells: angiopoietin 1", "type": "cell-based, human", "details": "micro array", "from_the_text": "as §2\nAngiogenesis is a process involving the growth of new blood vessels. It is a normal process in growth and development. However, this is also a fundamental step in the transition of tumors from a dormant state to a malignant state. The angiopoietins are protein growth factors that modulate angiogenesis. […]"}}}
{"compound": "C/C=C(/C)C(=O)O[C@H]1[C@H](OC(=O)/C(C)=C\\C)[C@@]2(CO)C(CC1(C)C)C1=CCC3[C@@]4(C)CC[C@H](O[C@@H]5OC(C(=O)O)[C@@H](O)[C@@H](O[C@@H]6O[C@@H](CO)[C@@H](O)C6O)C5O[C@@H]5OC(CO)[C@H](O)[C@@H](O)C5O)C(C)(C)C4CC[C@@]3(C)[C@]1(C)[C@@H](O)[C@H]2O", "note": "(stereo partly drawn) [Y, 3-O-[β-D-galactopyranosyl(1→2)]-α-L-arabinofuranosy (1→3)-β-D-glucuronopyranosyl-21,22-O-diangeloyl-3β, 15α, 16α, 21β, 22α, 28-hexahydroxyolean-12-ene]", "values": [{"measurement": "FN1 expression, % of control", "setting": "[1]", "result": "44.1 % of control"}, {"measurement": "LAMA4 expression, % of control", "setting": "[2]", "result": "53.6 % of control"}, {"measurement": "GPC6 expression, treated/D (DMSO control)", "setting": "[3]; probe set 227059_at", "result": "−2.2"}, {"measurement": "GPC6 expression, treated/D (DMSO control)", "setting": "[3]; probe set 243865_x_at", "result": "−2.7"}, {"measurement": "IGFBP1 expression, treated/D (DMSO control)", "setting": "[4]", "result": "−1.7"}, {"measurement": "IC50", "setting": "[5]", "result": 5, "unit": "µg/mL"}, {"measurement": "inhibition at 10 µg/mL", "setting": "[6]", "result": 50, "unit": "%"}, {"measurement": "IGFBP4 expression, treated/D (DMSO control)", "setting": "[7]", "result": "−1.7"}, {"measurement": "NFKB1Z expression, % of control", "setting": "[8]", "result": "142.9 % of control"}, {"measurement": "gene expression of angiopoietin 1", "setting": "[9]", "result": "inhibit"}]}
